# Measured values published in patent publication EP0943615A1, “1,4-DIHYDROPYRIDINE DERIVATIVES” (Nikken Chemicals Company, Limited, priority 1996, dated 1998).
# Where two headings read alike, the source gives them in different places.
# How the values were obtained:
# [1] = test system: VJ-300 cells; assay: In vitro test of action suppressing proliferation of cancer cells, combined administration of vincristine, resistant cells; assay type: cell-based, Human; conditions: VCR alone or VCR + test compound 1 µg/ml, LD50 of VCR relative to VCR alone in KB cells = 1
# Description: As the incubation solutions, use was made of 10% fetal calf serum (Flow Laboratories) and Eagle MEM medium (Nissui Seiyaku) containing 0.292 mg/ml of L-glutamine (Flow Laboratories). The tests of the action for overcoming resistance to anti-cancer drugs or action for increasing the effect of the anti-cancer drug with the combined administration of the anti-cancer drug doxorubicin (i.e., adriamycin, ADM) and the test compound were performed as follows:
# The test cells were suspended in incubation solutions and adjusted to a cell density of about 200 cells/ml. The cell suspensions were injected in 2 ml amounts into petri dishes and were incubated in a CO2 gas incubator (5% CO2, 95% air) at 37°C for 24 hours. Then, 5 µl of a predetermined concentration of the aqueous ADM solution and a predetermined concentration of a DMSO solution of the test compound were added, then the incubation was continued for a further 7 days. After the end of the incubation, the result was immobilized with methanol, Giemsa stained and measured for the number of colonies per dish. The results were used to prepare a volume-reaction curve. […] The results are shown in Table 8 to Table 10 using the concentration of LD50 of ADM in the ADM alone group by KB cells as the resistance degree 1 and calculating the resistances of the following LD50 concentrations as relative ratios.
# The same method as in Test Example 1 was used to test the action of vincristine (VCR) on anti-cancer drugs, prepare a volume-reaction curve, and calculate the resistances.
# [2] = test system: VJ-300 cells; assay: In vitro test of action suppressing proliferation of cancer cells, combined administration of doxorubicin (colony formation), resistant cells; assay type: cell-based, Human; conditions: ADM alone or ADM + test compound 1 µg/ml, LD50 of ADM relative to ADM alone in KB cells = 1, 7 days incubation, colony count
# [3] = Acute toxicity test; conditions: mouse, in vivo, ip; ddY male mice, intraperitoneally, suspended in 0.5% CMC-Na with 0.1% Tween 80, observed up until 7 days
# Description: • Animals used: ddY male mice (SLC Japan), 4-5 weeks old, three to five mice per group. • Test method: The compound of the present invention was suspended in 0.5% sodium carboxymethylcellulose (CMC-Na) containing 0.1% Tween 80. It was administered to the mice intraperitoneally in amounts from 1000 mg/kg to 250 mg/kg in groups of three to five mice until no more deaths were observed. The survival of the animals was observed up until 7 days after administration.
# [4] = test system: thoracic aorta of the rat; assay: Action easing KCl contraction in rat arteries (aortic ring, Magnus tube); conditions: read-out: IC50 value (x 10^-6 M)
# [5] = test system: VCR resistant murine leukemia (P388/VCR) cells; assay: In vivo test: overcoming resistance to vincristine in VCR resistant murine leukemia cell bearing mice; set-up: species or system CDF1 male mice; conditions: P388/VCR bearing CDF1 mice, VCR 100 µg/kg alone or with compound 100 mg/kg, intraperitoneally for 5 days; for Effect of overcoming resistance T/V (%): T/C of combination over T/C of VCR alone x 100; for Rate of prolongation of life T/C (%): with respect to controls
# Description: 10^6 VCR resistant murine leukemia (P388/VCR) cells were transplanted intraperitoneally into groups of six CDF1 male mice, then the compound of the present invention (100 mg/kg) and VCR (100 µg/kg) were administered intraperitoneally for 5 days. […] Effect of overcoming resistance to anti-cancer drug (T/V) % = [(Rate of prolongation of life using VCR and present compound (T/C))/(Rate of prolongation of life using VCR alone (T/C))] x 100 [formula]
# [6] = 50% inhibitory concentration of hyperpotassium contraction, 50mM potassium chloride, rat thoracic aorta ring, cumulative addition
Structure (SMILES),Degree of resistance for VCR VJ-300 [1],Degree of resistance for ADM VJ-300 [2],LD50 at 168 h [3],"IC50 [4, 6]",Average days of survival [5],Effect of overcoming resistance T/V (%) [5],Rate of prolongation of life T/C (%) [5],IC50 ([4]; Rattus norvegicus)
"CCOC(=O)C1=C(c2ccc(-n3c(C)nc4cnccc43)cc2)NC(C)=C(C(=O)OCCCc2cccnc2)C1C(C)C (stereo not shown) [Compound 2, 4-isopronyl-6-methyl-2-[4-(2-methylimidazo[4,5-c]pyridin-1-yl)phenyl]-1,4-dihydronyridin-3,5-dicarboxylate 3-ethylester, 5-[3-(3-pyridyl)propyl]ester]",9.6,2.7,> 1000 mg/kg,> 30 µM,–,–,–,–
"CCCCCC1C(C(=O)OCCCc2cccnc2)=C(C)NC(c2ccc(-n3c(C)nc4ncccc43)cc2)=C1C(=O)OCC (stereo not shown) [Compound 3, 6-methyl-2-[4-(2-methylimidazo[4,5-b]pyridin-1-yl)phenyl]-4-pentyl-1,4-dihydropyridin-3,5-dicarboxylate 3-ethylester, 5-[3-(3-pyridyl)propyl]ester]",7.1,1.2,–,–,15.0,133%,127%,–
"CCCCCC1C(C(=O)OCCCc2cccnc2)=C(C)NC(c2ccccc2)=C1C(=O)OCC (stereo not shown) [Compound 15, 6-methyl-4-pentyl-2-phenyl-1,4-dihydropyridin-3,5-dicarboxylate 3-ethylester, 5-[3-(3-pyridyl)propyl]ester]",6.5,3.2,–,–,15.7,128%,139%,–
COC(=O)C1=C(C)NC(C)=C(C(=O)OCCN(C)Cc2ccccc2)C1c1cccc([N+](=O)[O-])c1 (stereo not shown) [Nicardipine],–,–,–,0.26 µM,–,–,–,–
COc1ccc(CCN(C)CCCC(C#N)(c2ccc(OC)c(OC)c2)C(C)C)cc1OC (stereo not shown) [Verapamil],–,–,–,–,–,–,–,1.43 µM
